Columns and labels:
[1] = test system: P. falciparum male gametocytes; experiment: P. falciparum Dual Gamete Formation Assay (PfDGFA), male readout (exflagellation); assay type: cell-based, Plasmodium falciparum NF54; settings: for Average inhibition male (%): average of replicates; for % inhibition male (individual replicates) R1: replicate R1; for % inhibition male (individual replicates) R3: replicate R3; for % inhibition male (individual replicates) R4: replicate R4; for Activity: hit = >50% inhibition in male or female readout in at least 3 replicates, 0 = no class assigned
Outline: (§1)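 Two sex-specific readouts come from one well: male exflagellation centres recorded by brightfield video right after activation, and female gametes scored by Cy3-anti-Pfs25 fluorescence after 24 h at 28°C.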

[2] = test system: P. falciparum female gametocytes; experiment: P. falciparum Dual Gamete Formation Assay (PfDGFA), female readout (Pfs25-positive female gametes); assay type: cell-based, Plasmodium falciparum NF54; settings: for Average inhibition female (%): average of replicates; for % inhibition female (individual replicates) R1: replicate R1; for % inhibition female (individual replicates) R3: replicate R3; for % inhibition female (individual replicates) R4: replicate R4
Outline: as §1

[3] = 2µM, 24h preincubation with gametocytes prior to induction of gametogenesis
[4] = 2µM, 24h preincubation, number of replicates with >50% inhibition in the male readout
[5] = 2µM, 24h preincubation, number of replicates with >50% inhibition in the female readout
[6] = 2µM, 24h preincubation, hits selected on >50% inhibition in the male readout across replicates
[7] = PfDGFA at 2µM, 24h preincubation
[8] = 2µM, 24h preincubation, hits selected on >50% inhibition in the female readout across replicates
[9] = PfDGFA at 2µM, 24h preincubation with gametocytes
[10] = number of replicates with >50% inhibition in the male readout, 2µM
[11] = number of replicates with >50% inhibition in the female readout, 2µM
[12] = 2µM, 24h preincubation with gametocytes
[13] = PfDGFA at 2µM, 24h preincubation with gametocytes prior to induction of gametogenesis

| SMILES | Average inhibition male (%) [1, 3] | % inhibition male (individual replicates) R1 [1, 3] | % inhibition male (individual replicates) R3 [1, 3] | % inhibition male (individual replicates) R4 [1, 3] | HitlevelM [1, 4] | Average inhibition female (%) [2, 3] | % inhibition female (individual replicates) R1 [2, 3] | % inhibition female (individual replicates) R3 [2, 3] | % inhibition female (individual replicates) R4 [2, 3] | HitlevelF [2, 5] | further results |
| --- | --- | --- | --- | --- | --- | --- | --- | --- | --- | --- | --- |
| Cl.c1ccc2c(NCCCCCCCNc3ccnc4ccccc34)ccnc2c1 [TCMDC-137897] | 23.4% | 24.9% | -14.5% | 54.2% | 1 | 26.1% | 24.7% | -5.3% | 43.2% | 0 |  |
| Cl.c1ccc2c(c1)cc(CNCCCN1CCN(CCCNCc3cc4ccccc4c4ccccc34)CC1)c1ccccc12 [TCMDC-137914] | 5.2% | 10.5% | -10.9% | 23.6% | 0 | 20.8% | 24.6% | 15.0% | 14.7% | 0 |  |
| CCc1nc(N)nc(N)c1CCCOc1ccccc1Cl.Cl [TCMDC-137928] | -0.378% | 19.6% | 1.0% | -29.1% |  | 14.6% | 20.2% | 26.6% | 2.3% |  | HitlevelM [1, 6]: 0; Activity [1, 7]: 0; HitlevelF [2, 8]: 0 |
| CCOc1cc2ccccc2cc1CNCCCCCCNCc1cc2ccccc2cc1OCC.CS(=O)(=O)O [TCMDC-137940] | -10.2% | -8.8% | -9.1% | -15.1% |  | 10.1% | 11.4% | 8.9% | 5.4% |  | HitlevelM [1, 6]: 0; Activity [1, 7]: 0; HitlevelF [2, 8]: 0 |
| CCOc1c(CNCCCCCCNCc2ccc3ccccc3c2OCC)ccc2ccccc12.CS(=O)(=O)O [TCMDC-137942] |  |  |  |  |  |  |  |  |  |  | Average inhibition male (%) [1, 9]: 82.7%; % inhibition male (individual replicates) R1 [1, 9]: 76.8%; % inhibition male (individual replicates) R3 [1, 9]: 64.7%; % inhibition male (individual replicates) R4 [1, 9]: 98.9%; HitlevelM [1, 10]: 4; Average inhibition female (%) [2, 9]: 35.4%; % inhibition female (individual replicates) R1 [2, 9]: 30.1%; % inhibition female (individual replicates) R3 [2, 9]: 19.1%; % inhibition female (individual replicates) R4 [2, 9]: 50.5%; HitlevelF [2, 11]: 1 |
| CCCc1cc2c3c(N)nc(N)nc3ccc2n1CC [TCMDC-137946] |  |  |  |  |  |  |  |  |  |  | Average inhibition male (%) [1, 12]: 95.8%; % inhibition male (individual replicates) R1 [1, 12]: 97.3%; % inhibition male (individual replicates) R3 [1, 12]: 96.2%; % inhibition male (individual replicates) R4 [1, 12]: 104.1%; Average inhibition female (%) [2, 12]: 82.6%; % inhibition female (individual replicates) R1 [2, 12]: 82.8%; % inhibition female (individual replicates) R3 [2, 12]: 88.8%; % inhibition female (individual replicates) R4 [2, 12]: 84.8% |
| CCCC(CC)n1ccc2c3c(N)nc(N)nc3ccc21.CS(=O)(=O)O (stereo not shown) [TCMDC-137948] |  |  |  |  |  |  |  |  |  |  | % inhibition male (individual replicates) R1 [1, 13]: 21.2%; % inhibition male (individual replicates) R3 [1, 13]: 21.4%; % inhibition male (individual replicates) R4 [1, 13]: 12.8%; Average inhibition male (%) [1, 7]: 22.4%; % inhibition female (individual replicates) R1 [2, 13]: -1.7%; % inhibition female (individual replicates) R3 [2, 13]: -3.2%; % inhibition female (individual replicates) R4 [2, 13]: -13.6%; Average inhibition female (%) [2, 7]: -8.1% |
| CCCC(CCC)n1ccc2c3c(N)nc(N)nc3ccc21.Cl [TCMDC-137949] |  |  |  |  |  |  |  |  |  |  | % inhibition male (individual replicates) R1 [1, 13]: 35.5%; % inhibition male (individual replicates) R3 [1, 13]: 0.4%; % inhibition male (individual replicates) R4 [1, 13]: -40.5%; Average inhibition male (%) [1, 7]: 0.9%; % inhibition female (individual replicates) R1 [2, 13]: 4.6%; % inhibition female (individual replicates) R3 [2, 13]: 19.1%; % inhibition female (individual replicates) R4 [2, 13]: -10.8%; Average inhibition female (%) [2, 7]: 3.5% |
| CCCOc1c(CCNCCCCNCCc2ccc3ccccc3c2OCCC)ccc2ccccc12.CS(=O)(=O)O [TCMDC-137950] |  |  |  |  |  |  |  |  |  |  | Average inhibition male (%) [1, 9]: 74.1%; % inhibition male (individual replicates) R1 [1, 9]: 87.0%; % inhibition male (individual replicates) R3 [1, 9]: 74.0%; % inhibition male (individual replicates) R4 [1, 9]: 95.7%; HitlevelM [1, 10]: 3; Average inhibition female (%) [2, 9]: 65.5%; % inhibition female (individual replicates) R1 [2, 9]: 72.1%; % inhibition female (individual replicates) R3 [2, 9]: 62.6%; % inhibition female (individual replicates) R4 [2, 9]: 79.5%; HitlevelF [2, 11]: 3 |
| COc1cc2ccccc2cc1CNCCCCCCNCc1cc2ccccc2cc1OC.CS(=O)(=O)O [TCMDC-137955] | 53.1% | 58.5% | -7.9% | 78.9% | 3 | 14.7% | 13.5% | -9.9% | 5.4% | 0 |  |
| Cc1cc2c3c(N)nc(N)nc3ccc2n1C [TCMDC-137957] | 2.4% | -0.85% | -3.6% | 3.4% | 0 | 31.9% | 39.3% | 32.6% | 34.2% | 0 |  |
| Nc1nc(N)c2c(ccc3c2ccn3CCCCO)n1 [TCMDC-137959] |  |  |  |  |  |  |  |  |  |  | % inhibition male (individual replicates) R1 [1, 13]: 21.0%; % inhibition male (individual replicates) R4 [1, 13]: -1.8%; Average inhibition male (%) [1, 7]: 15.1%; % inhibition female (individual replicates) R1 [2, 13]: -0.01%; % inhibition female (individual replicates) R3 [2, 13]: -3.7%; % inhibition female (individual replicates) R4 [2, 13]: 2.0%; Average inhibition female (%) [2, 7]: -0.9% |
| Nc1nc(N)c2c(ccc3nn(C4CCCC4)cc32)n1 [TCMDC-137960] | -1.6% | 13.2% |  | -27.5% |  | 4.4% | 5.0% | 5.0% | 9.1% |  | HitlevelM [1, 6]: 0; Activity [1, 7]: 0; HitlevelF [2, 8]: 0 |
| CCCCCCOc1ccc2ccccc2c1CNCCCCCCNCc1c(OCCCCCC)ccc2ccccc12.CS(=O)(=O)O [TCMDC-137963] | 26.5% | 35.9% | 2.2% | 25.6% | 0 | 30.9% | 24.3% | 23.7% | 29.4% | 0 |  |
| CC(C)COc1ccc2ccccc2c1CNCCCCCCNCc1c(OCC(C)C)ccc2ccccc12.CS(=O)(=O)O [TCMDC-137972] | 47.1% | 41.0% | 61.0% | 84.0% | 2 | 43.0% | 37.9% | 36.7% | 62.6% | 1 |  |
| CN(C)S(=O)(=O)n1ccc2c3c(N)nc(N)nc3ccc21 [TCMDC-137973] | -3.2% | 31.1% | -3.2% | -51.1% |  | 12.1% | 13.5% | 33.5% | 1.8% |  | HitlevelM [1, 6]: 0; Activity [1, 7]: 0; HitlevelF [2, 8]: 0 |
| CCCCOc1c(CNCCCCCCNCc2ccc3ccccc3c2OCCCC)ccc2ccccc12.CS(=O)(=O)O [TCMDC-137975] |  |  |  |  |  |  |  |  |  |  | Average inhibition male (%) [1, 9]: 78.3%; % inhibition male (individual replicates) R1 [1, 9]: 78.0%; % inhibition male (individual replicates) R4 [1, 9]: 67.8%; HitlevelM [1, 10]: 3; Average inhibition female (%) [2, 9]: 39.1%; % inhibition female (individual replicates) R1 [2, 9]: 52.1%; % inhibition female (individual replicates) R3 [2, 9]: 14.4%; % inhibition female (individual replicates) R4 [2, 9]: 37.6%; HitlevelF [2, 11]: 2 |
